Source: patent publication US9289425B2, “Intranasal naloxone compositions and methods of making and using same” (priority 2013, dated 2016)
Structures can show the parent of a compound that is named as a salt. Where two headings read alike, the source gives them in different places.

Experiments:
[1] = Physicochemical properties of naloxone stated in the description; conditions: pH of about 5.5 to 6.5
Source text: Specifically, naloxone is known to have a pKa of about 8. For nasal formulations, wherein transmucosal delivery is desired, it is generally considered advantageous, if not necessary, to ensure that an active agent is primarily in an un-ionized state, as unionized species pass through membranes more easily than ionized species. […] The nasal mucosal is at a pH of about 5.5 to 6.5, a pH at which Applicant has found naloxone is unstable.
Naloxone prevents or reverses the effects of opioids including respiratory depression, sedation and hypotension. Also, it can reverse the psychotomimetic and dysphoric effects of agonist-antagonists such as pentazocine. […] In the presence of physical dependence on opioids, naloxone will produce withdrawal symptoms. However, in the presence of opioid dependence, withdrawal symptoms will appear within minutes of naloxone administration and will subside in about 2 hours. The severity and duration of the withdrawal syndrome are related to the dose and route of administration of naloxone and to the degree and type of dependence.

[2] = cited from earlier work

In the case of `C=CCN1CC[C@]23c4c5ccc(O)c4O[C@H]2C(=O)CC[C@@]3(O)[C@H]1C5` [naloxone, 17-allyl-4,5α-epoxy, 3-14-dihydroxymorphinan-6-one hydrochloride], the “stability versus pH” value [1] is given as “unstable”, the pKa [2] is given as “about 8” and the solubility ([2]; in alcohol) is given as “slightly soluble”. For the same compound, the solubility ([2]; in ether and in chloroform) was “practically insoluble” and the solubility ([2]; in water, in dilute acids, and in strong alkali) was “soluble”.
